Where “and” joins values, the source holds several entries; their conditions need not be identical. Equal entries are not always repeated. Where two headings read alike, the source gives them in different places.
Assays:
[1] = cited from earlier work; for Odor Detection Threshold: Table 24, Floral fragrance; for exp ODT water: Booleans database
[2] = GC-MS headspace release profile of perfume in shampoo, 1/100 dilution in water; type: physicochemical; settings: Tropical Fruit Perfume
Experimental: Experimental Procedure: Individual odorant to be tested was added to 20 g of shampoo formulation (see formula below in Table 4) at 0.1%.
A 10 gram sample of formulation and fragrance was added to an empty 1000 ml pyrex beaker. This beaker was then filled with 1000 ml of 120 F tap water. Beaker with diluted shampoo sample was then immediately placed into a semi-enclosed plexiglass chamber.
Headspace Sampling: Once beaker was placed into chamber a Carboxan SPME field fiber was held at the top-side opening of the chamber over the beaker containing the sample. […] […] Top of plexiglass chamber was held open for entire 5 minutes of headspace sampling.

Row | Molecule | GC Abundance ([2]; 30 seconds) | GC Abundance ([2]; 40 seconds) | GC Abundance ([2]; 50 seconds) | other results
1 | CC(=O)OC1CC2CC1C1CC=CC21 (stereo not shown) | – | – | – | Odor Detection Threshold [1]: 50 ppb or less
2 | C=CC(C)(O)CCC=C(C)CC (mixture of isomers) [ETHYL LINALOOL] | 10000 | 10000 | 10000 | GC Abundance ([2]; 20 seconds): 5000
3 | CC=Cc1ccc(O)c(OC)c1 [1-Hydroxy-2-methoxy-4-propenylbenzene] | – | – | – | exp ODT water [1]: 30-40 ppb
4 | CCCCCCCC=O [1-Octanal] | – | – | – | exp ODT water [1]: 30 ppb
5 | Cc1ccc(C(C)C)c(O)c1 [5-Methyl-2-isopropylphenol] | – | – | – | exp ODT water [1]: 400 ppb
6 | CC(C)=CCCC(C)CCCC(C)C=O (stereo not shown) [ADOXAL, 2,6,10-Trimethyl-9-undecenal] | – | 300 | 3000 | –
7 | CCCCCC1CCC(=O)O1 (stereo not shown) [ALDEHYDE C-18] | 2000 | 4000 | 4000 | GC Abundance ([2]; 20 seconds): 2000
8 | C=CCOC(=O)CCC1CCCCC1 [ALLYL CYCLOHEXYL PROPIONATE] | – | 7000 | 10000 | –
9 | C=CCOC(=O)CCCCCC [ALLYL HEPTOATE] | 10000 | 12000 | 12000 | GC Abundance ([2]; 20 seconds): 4000
10 | CC1(C)CCC[C@]2(C)[C@H]3CCO[C@]3(C)CC[C@@H]12 [AMBROXAN] | – | – | 1000 | –
11 | CC/C(=C\CC1CC=C(C)C1(C)C)CO (stereo not shown) [BACDANOL] | – | 100 | 5000 | –
12 | CC(=O)OCc1ccccc1 [BENZYL ACETATE] | 17000 | 18000 | 18000 | GC Abundance ([2]; 20 seconds): 12000
13 | OCc1ccccc1 [BENZYL ALCOHOL] | – | 50 | 100 | –
14 | CCC(=O)OCc1ccccc1 [BENZYL PROPIONATE] | 6000 | 6000 | 6000 | GC Abundance ([2]; 20 seconds): 2000
15 | C/C=C/C(=O)C1=C(C)CCCC1(C)C [BETA DAMASCONE FAB, β-damascone] | – | – | – | Odor Detection Threshold [1]: 50 ppb or less; ODT ([1]; Table 30, berry note): 50 ppb or less
16 | CCCCOC(C)=O [Butyl acetate] | – | – | – | exp ODT water [1]: 44-88 ppb
17 | Cc1ccc2c(c1)OCC(=O)CO2 [CALONE] | – | – | 1000 | –
18 | CC/C=C\CCO [CIS-3-HEXEN-1-OL] | 14000 | 14000 | 14000 | GC Abundance ([2]; 20 seconds): 14000
19 | CC/C=C\CCOC(C)=O [CIS-3-HEXENYL ACETATE] | 14000 | 14000 | 14000 | GC Abundance ([2]; 20 seconds): 5000
20 | CC(C)=CCCC(C)CCO (stereo not shown) [CITRONELLOL AJ, FCC, CITRONELLOL] | 7000 | 7000 | 7000 | GC Abundance ([2]; 20 seconds): 7000
21 | CC=CC(=O)C1=C(C)C=CCC1(C)C [DAMASCENONE, 1-(2,6,6-Trimethylcyclohexa-1,3-dienyl)-2-buten-1-one] | – | – | 1000 | exp ODT water [1]: 0.002 ppb

Row | Molecule | GC Abundance ([2]; 30 seconds) | GC Abundance ([2]; 40 seconds) | GC Abundance ([2]; 50 seconds) | other results
22 | CCC(C)(O)CCC=C(C)C (stereo not shown) [DIHYDROLINALOOL] | 3000 | 3000 | 3000 | GC Abundance ([2]; 20 seconds): 3000
23 | C=CC(C)CCCC(C)(C)O (stereo not shown) [DIHYDROMYRCENOL] | 15000 | 15000 | 15000 | GC Abundance ([2]; 10 seconds): 500; GC Abundance ([2]; 20 seconds): 15000
24 | CC(=O)OC(C)(C)Cc1ccccc1 [DIMETHYL BENZYL CARBINYL ACETATE] | 2000 | 8000 | 8000 | –
25 | CCCC(=O)OCC [ETHYL BUTYRATE, Ethyl butyrate] | 2800 | 2000 | 800 | exp ODT water [1]: 1 ppb; GC Abundance ([2]; 10 seconds): 2800; GC Abundance ([2]; 20 seconds): 2800
26 | CCOC(=O)C1OC1c1ccccc1 (stereo not shown) [ETHYL PHENYL GLYCIDATE] | – | – | – | ODT ([1]; Table 30, berry note): 50 ppb or less
27 | O=C1CCCCCCCCCCCC(=O)OCCO1 [ETHYLENE BRASSYLATE] | – | – | 20 | –
28 | O=C1CCCCCCCCCCCCCCO1 [EXALTOLIDE TOTAL] | – | – | 50 | –
29 | CCOC(=O)C1OC1(C)c1ccccc1 (stereo not shown) [Ethyl 2,3-epoxy-3-methyl-3-phenylpropionate] | – | – | – | exp ODT water [1]: 25 ppb
30 | CC(C)c1cccc(C(C)CC=O)c1 (stereo not shown) [FLORHYDRAL] | – | 9000 | 10000 | Odor Detection Threshold [1]: 50 ppb or less
31 | CC(C)CC1CC(C)(O)CCO1 (stereo not shown) [FLOROL] | – | 10000 | 15000 | –
32 | CCOC(=O)CC1(C)OCCO1 [FRUCTONE] | 5000 | 5000 | 5000 | ODT ([1]; Table 17, apple note compounds): 50 ppb or less; GC Abundance ([2]; 20 seconds): 3000
33 | CCCCCCC1CCC(=O)O1 (stereo not shown) [GAMMA-DECALACTONE, 5-Hexyldihydro-2(3H)-furanone] | – | 4000 | 7000 | –
34 | CCCCCC1C(=O)CCC1CC(=O)OC (stereo not shown) [HEDIONE] | – | – | 4000 | Odor Detection Threshold [1]: 50 ppb or less
35 | CC(C=O)Cc1ccc2c(c1)OCO2 (stereo not shown) [HELIONAL] | – | 500 | 5000 | –
36 | CCCCCCC(C=O)=Cc1ccccc1 [HEXYL CINNAMIC ALDEHYDE, hexyl cinnamic aldehyde] | – | 2000 | 9000 | –
37 | C=C(C)C1CC=C(C)C(=O)C1 (stereo not shown) [I-1-Methyl-4-isopropenyl-6-cyclohexen-2-one] | – | – | – | exp ODT water [1]: 50 ppb
38 | CC(=O)/C=C/C1C(C)=CCCC1(C)C (stereo not drawn) [IONONE ALPHA, alpha ionone] | – | – | – | exp ODT water [1]: 0.4-10 ppb
39 | CC(=O)C=CC1=C(C)CCCC1(C)C [IONONE BETA PURE, 4-(2,6,6-Trimethyl-1-cyclohexen-1-yl)-3-buten-2-one] | 2000 | 10000 | 18000 | exp ODT water [1]: 4-6 ppb; Odor Detection Threshold [1]: 50 ppb or less
40 | CC/C=C\CCOC(=O)OC [LIFFAROME] | 3000 | 3000 | 3000 | GC Abundance ([2]; 20 seconds): 3000
41 | C=CC(C)(O)CCC=C(C)C (stereo not shown) [LINALOOL, linalool] | 18000 | 18000 | 18000 | Odor Detection Threshold [1]: 50 ppb or less; GC Abundance ([2]; 10 seconds): 500; GC Abundance ([2]; 20 seconds): 18000
42 | CC1OC(C)C2Cc3ccccc3C2O1 (stereo not shown) [MAGNOLAN/CORPS 719] | – | 1000 | 3000 | –

Row | Molecule | GC Abundance ([2]; 30 seconds) | GC Abundance ([2]; 40 seconds) | GC Abundance ([2]; 50 seconds) | other results
43 | CCCCCCCCCC=CC=O [MANDARIN ALDEHYDE] | – | – | – | ODT ([1]; Table 32, citrus note): 50 ppb or less
44 | CCCC(C)C(=O)OCC (stereo not shown) [MANZANATE, Ethyl 2-methylpentanoate] | 4000 | 3000 | 1500 | exp ODT water [1]: 0.0030 ppb; ODT ([1]; Table 17, apple note compounds): 50 ppb or less; odor detection threshold in water ([1]; text b188): 0.003 parts per billion; GC Abundance ([2]; 10 seconds): 1000; GC Abundance ([2]; 20 seconds): 4000
45 | CC(C)=CCCC(C)C=O (stereo not shown) [MELONAL, 2,6-Dimethyl-5-heptenal] | – | – | – | exp ODT water [1]: 16 ppb; ODT ([1]; Table 26, cucumber-melon note): 50 ppb or less; odor detection threshold values in water [1]: 16 ppb
46 | COC(=O)c1ccccc1N [METHYL AN[…], METHYL ANTHRANILATE] | – | – | – | Odor Detection Threshold [1]: 50 ppb or less
47 | COC(=O)c1c(C)cc(O)c(C)c1O [METHYL ATRATATE] | – | – | 50 | –
48 | CCCCCOC(C)=O [Pentyl Acetate] | – | – | – | exp ODT water [1]: 43 ppb
49 | CCCCCOC(=O)CCC [Pentyl butyrate] | – | – | – | exp ODT water [1]: 44-87 ppb
50 | CC(C)=CC1CC(C)CCO1 (stereo not drawn) [ROSE OXIDE (HIGH CIS), Tetrahydro-4-methyl-2-(2-methylpropen-1-yl)pyran] | 14000 | 14000 | 14000 | exp ODT water [1]: 0.5 ppb; GC Abundance ([2]; 20 seconds): 10000
51 | CC1=CCC(CCC(C)C(C)O)C1(C)C (stereo not shown) [SANDALORE] | – | – | 2000 | –
52 | CC1=C(O)C(=O)C(C)O1 (stereo not shown) [STRAWBERRY FURANONE] | – | – | – | ODT ([1]; Table 30, berry note): 50 ppb or less
53 | CC(=O)OC(C)(C)C1CC=C(C)CC1 (stereo not shown) [TERPINYL ACETATE] | 1000 | 9000 | 9000 | –
54 | CC1=CC(C)C(C=O)CC1 (stereo not shown) [TRIPLAL] | 14000 | 10000 | 6000 | GC Abundance ([2]; 10 seconds): 1000; GC Abundance ([2]; 20 seconds): 14000
55 | CCC=C(C)C(O)CCCCC (stereo not shown) [UNDECAVERTOL, 4-Methyl-3-decen-5-ol] | – | 10000 | 10000 | –
56 | COc1cc(C=O)ccc1O [VANILLIN NF, 4-Hydroxy-3-methoxybenzaldehyde] | – | – | – | exp ODT water [1]: 25-58 ppb and 20-200 ppb
57 | CC(=O)OC1CCC(C(C)(C)C)CC1 (stereo not shown) [VERTENEX HC] | 2000 | 8000 | 10000 | –
58 | CC=CC(=O)C1C(C)=CCCC1(C)C (stereo not drawn) [alpha-DAMASCONE, α-1-(2,6,6-Trimethyl-2-cyclohexen-1-yl)-2-buten-1-one] | – | 1000 | 5000 | exp ODT water [1]: 1.5 ppb; ODT ([1]; Table 17, apple note compounds): 50 ppb or less
59 | CCC(=O)OC/C=C(\C)CCC=C(C)C [trans-3,7-Dimethyl-2,6-octadien-1-yl propanoate] | – | – | – | exp ODT water [1]: 10 ppb
60 | C/C=C/C(=O)C1C(C)C=CCC1(C)C (stereo not shown) [δ-DAMASCONE] | – | – | – | ODT ([1]; Table 28, fig note): 50 ppb or less
61 | VERTOFIX COEUR | – | – | 50 | –
